Experimental data published in article PMC3206575 (The Journal of Cell Biology, 1999).
Residue numbers refer to the chain shown, from its start.

Experiments:
[1] = target: T1, DRal (Drosophila Ral), GST-DRal (Drosophila melanogaster, UniProt P48555); assay: [3H]GDP binding to GST fusion protein
T1 sequence (P48555 1-201): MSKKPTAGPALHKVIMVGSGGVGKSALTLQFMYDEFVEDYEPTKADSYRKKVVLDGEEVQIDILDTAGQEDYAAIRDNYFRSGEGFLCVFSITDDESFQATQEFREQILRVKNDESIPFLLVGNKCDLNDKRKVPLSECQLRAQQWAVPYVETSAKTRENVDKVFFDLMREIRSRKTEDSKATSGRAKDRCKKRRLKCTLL

[2] = target: T2, DRal (Drosophila Ral), GST-DRal (Drosophila melanogaster, UniProt P48555, G20V); assay: [3H]GDP binding to GST fusion protein
T2 sequence (P48555 1-201 G20V): T1 sequence (P48555 1-201) with G20V

[3] = target: T3, DRal (Drosophila Ral), GST-DRal (Drosophila melanogaster, UniProt P48555, S25N); assay: [3H]GDP binding to GST fusion protein
T3 sequence (P48555 1-201 S25N): T1 sequence (P48555 1-201) with S25N

[4] = target: T1, DRal (Drosophila Ral), GST-DRal; assay: […]GTPγS binding to GST fusion protein
[5] = target: T3, DRal (Drosophila Ral), GST-DRal; assay: […]GTPγS binding to GST fusion protein
[6] = target: T2, DRal (Drosophila Ral), GST-DRal; assay: […]GTPγS binding to GST fusion protein

Row | Kd [1] | Kd [2] | Kd [3] | Kd [4] | Kd [5] | Kd [6] | SMILES
1 | 0.014 µM | 0.0084 µM | 0.0951 µM | – | – | – | Nc1nc2c(ncn2[C@@H]2O[C@H](COP(=O)(O)OP(=O)(O)O)[C@@H](O)[C@H]2O)c(=O)[nH]1 [GDP]
2 | – | – | – | 0.0307 µM | 0.406 µM | 0.038 µM | Nc1nc2c(ncn2[C@@H]2O[C@H](COP(=O)(O)OP(=O)(O)OP(O)(O)=S)[C@@H](O)[C@H]2O)c(=O)[nH]1 [GTPγS]
